Here are results for three compounds from ChEMBL document CHEMBL1158106, “Penifulvins B-E and a silphinene analogue: sesquiterpenoids from a fungicolous isolate of Penicillium griseofulvum” (J Nat Prod, 2006).

Holding throughout (type): functional, organism-based
For one assay, the system named is Candida albicans. Briefly: Antifungal activity against Candida albicans ATCC 14053 at 100 ug/disk by agar disk diffusion assay. (Agar diffusion results depend on both activity and mobility in agar.)
A further assay concerns Aspergillus flavus. Briefly: Antifungal activity against Aspergillus flavus NRRL 6541 at 100 ug/disk by agar disk diffusion assay.
A further assay deals with Bacillus subtilis. Briefly: Antibacterial activity against Bacillus subtilis ATCC 6051 at 100 ug/disk by agar disk diffusion assay.
The subject of the next assay is Spodoptera frugiperda. As to the kind of experiment: Insecticidal activity against Spodoptera frugiperda at 100 ug/disk.
The subject of a further assay is Staphylococcus aureus. Briefly: Antibacterial activity against Staphylococcus aureus ATCC 29213 at 100 ug/disk by agar disk diffusion assay.

The source made the active and inactive calls. No cut-off for these calls is given here.

As for `C[C@@]1(CO)C[C@]2(C)CC(=O)O[C@H]3OC(=O)[C@@H]4CC[C@@H]1[C@]342`, the outcome in the assay on Candida albicans, in the assay with Aspergillus flavus, in the assay on Bacillus subtilis, with Spodoptera frugiperda and in the assay on Staphylococcus aureus was inactive.
As to `CC1(C)C[C@]2(C)CC(=O)O[C@H]3OC(=O)[C@@H]4CC[C@@H]1[C@]342`, the result in the assay with Spodoptera frugiperda was Active.
Turning to `C[C@@]1(CO)C[C@]2(C)CC=C[C@]23[C@H](C(=O)O)CC[C@@H]13`, the result in the assay on Candida albicans, with Aspergillus flavus, in the assay with Bacillus subtilis, in the assay with Spodoptera frugiperda and in the assay with Staphylococcus aureus was inactive.
